Assay results: the CheMixHub viscosity set

Test: xn = mol fraction of the nth substance listed

CC(O)CO (configuration not stated) + CCOC(C)=O
viscosity [mPa·s], 101.3 kPa
Conditions | x2 = 0.0929 | x2 = 0.1906 | x2 = 0.2984 | x2 = 0.4082 | x2 = 0.5085 | x2 = 0.6062 | x2 = 0.7032 | x2 = 0.7968 | x2 = 0.8998
298.15 K | 20.11 | 10.09 | 5.084 | 2.919 | 1.869 | 1.238 | 0.8932 | 0.6933 | 0.5327
303.15 K | 15.92 | 8.28 | 4.306 | 2.516 | 1.663 | 1.115 | 0.8175 | 0.6419 | 0.5008
308.15 K | 12.64 | 6.743 | 3.661 | 2.193 | 1.47 | 1.011 | 0.7525 | 0.5957 | 0.4714
313.15 K | 10.17 | 5.587 | 3.146 | 1.924 | 1.313 | 0.9178 | 0.6971 | 0.5565 | 0.4442
318.15 K | 8.35 | 4.705 | 2.729 | 1.705 | 1.177 | 0.8394 | 0.6418 | 0.5191 | 0.4197
323.15 K | 6.893 | 4.021 | 2.377 | 1.514 | 1.072 | 0.7691 | 0.5964 | 0.4882 | 0.3962

CC(O)CO (configuration not stated) + CC(C)CO
viscosity [mPa·s], 100 kPa
Conditions | x2 = 0.101 | x2 = 0.2 | x2 = 0.3 | x2 = 0.4 | x2 = 0.5 | x2 = 0.6 | x2 = 0.7 | x2 = 0.8 | x2 = 0.9
298.15 K | 29.95 | 22.5 | 16.76 | 12.73 | 9.74 | 7.778 | 6.056 | 4.843 | 3.968
303.15 K | 22.85 | 17.38 | 13.28 | 10.21 | 7.878 | 6.366 | 5.037 | 4.08 | 3.366
308.15 K | 17.8 | 13.79 | 10.5 | 8.284 | 6.476 | 5.284 | 4.197 | 3.45 | 2.869
313.15 K | 14.12 | 11.03 | 8.532 | 6.802 | 5.362 | 4.42 | 3.54 | 2.939 | 2.471
318.15 K | 11.32 | 8.884 | 6.942 | 5.599 | 4.486 | 3.744 | 3.013 | 2.533 | 2.129
323.15 K | 9.291 | 7.286 | 5.767 | 4.693 | 3.766 | 3.185 | 2.59 | 2.192 | 1.846

O=C1CCCC1 + CCCCCO
303.15 K, 101 kPa
Conditions | viscosity [mPa·s]
x1 = 0.0989 | 2.258
x1 = 0.2598 | 1.682
x1 = 0.4202 | 1.353
x1 = 0.5803 | 1.179
x1 = 0.7374 | 1.057
x1 = 0.9009 | 0.98

CC(O)CO (configuration not stated) + CC(C)=O
viscosity [mPa·s], 100 kPa
Conditions | x2 = 0.1 | x2 = 0.2 | x2 = 0.2998 | x2 = 0.3999 | x2 = 0.5004 | x2 = 0.5999 | x2 = 0.6999 | x2 = 0.8 | x2 = 0.9001
293.15 K | 29.94 | 14.46 | 7.145 | 3.875 | 2.363 | 1.532 | 0.934 | 0.601 | 0.4671
298.15 K | 22.95 | 11.54 | 5.918 | 3.303 | 2.066 | 1.356 | 0.8597 | 0.5688 | 0.4463
303.15 K | 17.9 | 9.34 | 4.965 | 2.882 | 1.821 | 1.201 | 0.7943 | 0.5379 | 0.4209
308.15 K | 14.19 | 7.662 | 4.208 | 2.55 | 1.614 | 1.103 | 0.7356 | 0.5208 | 0.3953
313.15 K | 11.41 | 6.362 | 3.602 | 2.189 | 1.44 | 0.9924 | 0.6822 | 0.4945 | 0.377
318.15 K | 9.297 | 5.341 | 3.109 | 1.971 | 1.298 | 0.8944 | 0.6317 | 0.4731 | 0.3691
323.15 K | 7.672 | 4.529 | 2.71 | 1.717 | 1.175 | 0.815 | 0.5813 | 0.4533 | 0.3477

ClC=C(Cl)Cl + CC(C)O
viscosity [mPa·s]
Conditions | 293.15 K | 303.15 K | 313.15 K
101.3 kPa, x1 = 0.1036 | – | 1.363 | –
101.3 kPa, x1 = 0.2204 | – | 1.053 | –
101.3 kPa, x1 = 0.3432 | – | 0.849 | –
101.3 kPa, x1 = 0.4172 | – | 0.765 | –
101.3 kPa, x1 = 0.5133 | – | 0.686 | –
101.3 kPa, x1 = 0.6024 | – | 0.641 | –
101.3 kPa, x1 = 0.7196 | – | 0.603 | –
101.3 kPa, x1 = 0.8017 | – | 0.583 | –
101.3 kPa, x1 = 0.9028 | – | 0.556 | –
101.33 kPa, x2 = 0.15 | 0.7418 | 0.6628 | 0.5527
101.33 kPa, x2 = 0.3 | 0.9127 | 0.7947 | 0.6334
101.33 kPa, x2 = 0.45 | 1.083 | 0.9265 | 0.7141
101.33 kPa, x2 = 0.6 | 1.257 | 1.058 | 0.7948
101.33 kPa, x2 = 0.75 | 1.428 | 1.19 | 0.8775
101.33 kPa, x2 = 0.9 | 1.596 | 1.322 | 0.9562

CCCCC(=O)[O-].CC[NH+](CC)CCO + CCCCn1cc[n+](C)c1.COP(=O)([O-])OC
Conditions | viscosity [mPa·s]
298.15 K, 101 kPa, x1 = 0.1018 | 415.5

Cc1ccccn1 + CCC(C)=O
viscosity [mPa·s], 101.3 kPa
Conditions | x1 = 0.1 | x1 = 0.2 | x1 = 0.3 | x1 = 0.4 | x1 = 0.5 | x1 = 0.6 | x1 = 0.7 | x1 = 0.7999 | x1 = 0.9
303.15 K | 0.4017 | 0.4296 | 0.4565 | 0.4877 | 0.5193 | 0.5612 | 0.5978 | 0.6425 | 0.6942
313.15 K | 0.3667 | 0.3917 | 0.416 | 0.4445 | 0.4702 | 0.5038 | 0.5356 | 0.5718 | 0.6118
323.15 K | 0.3457 | 0.3572 | 0.3813 | 0.4009 | 0.4264 | 0.4523 | 0.4827 | 0.5104 | 0.5528
